From ChEMBL document CHEMBL1201862, “PubChem BioAssay data set” (2004)
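A five-concentration, 48-hour dose response in 96-well plates underlies each endpoint, interpolated linearly between surrounding concentrations. Here, GI50 denotes the concentration required for 50% inhibition of growth.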 The source made the active and inactive calls. No stated cut-off is given here; in the data, active = GI50 up to about 1.1 µM and inactive = higher.

Legend:
Assay in all cases: DTP human tumour cell line panel, 48 h
[1] = test system: M14
[2] = test system: OVCAR-5
[3] = test system: UO-31
[4] = test system: SK-OV-3
[5] = test system: SF-539
[6] = test system: BT-549
[7] = test system: SNB-19
[8] = test system: SF-295
[9] = test system: MDA-N
[10] = test system: IGROV-1
[11] = test system: A549
[12] = test system: NCI-H522
[13] = test system: SK-MEL-5
[14] = test system: SR
[15] = test system: HT-29
[16] = test system: KM12
[17] = test system: Malme-3M
[18] = test system: ACHN
[19] = test system: A498
[20] = test system: MCF7
[21] = test system: COLO 205
[22] = test system: U-251
[23] = test system: NCI-H226
[24] = test system: MDA-MB-435
[25] = test system: 786-0
[26] = test system: HCT-15
[27] = test system: SW-620
[28] = test system: HOP-62
[29] = test system: MDA-MB-231
[30] = test system: LOX IMVI
[31] = test system: SN12C
[32] = test system: SK-MEL-2
[33] = test system: UACC-257
[34] = test system: NCI-H23
[35] = test system: NCI-H460
[36] = test system: UACC-62
[37] = test system: TK-10
[38] = test system: OVCAR-3
[39] = test system: K562
[40] = test system: SK-MEL-28
[41] = test system: HCT-116
[42] = test system: EKVX
[43] = test system: CAKI-1
[44] = test system: SF-268
[45] = test system: MOLT-4
[46] = test system: DU-145
[47] = test system: T47D
[48] = test system: OVCAR-4
[49] = test system: PC-3
[50] = test system: RPMI-8226
[51] = test system: OVCAR-8
[52] = test system: HOP-92
[53] = test system: HL-60
[54] = test system: NCI/ADR-RES
[55] = test system: CCRF-CEM
[56] = test system: SNB-75
[57] = test system: RXF 393
[58] = test system: HCC 2998
[59] = test system: Hs-578T

With `S=C(S)NCCCn1ccnc1` the GI50 [1] was > 100 µM (inactive), the GI50 [2] was > 100 µM (inactive) and the GI50 [3] was > 100 µM (inactive). The GI50 [4] was > 100 µM (inactive), the GI50 [5] was > 100 µM (inactive) and the GI50 [6] was > 100 µM (inactive). For the same compound, the GI50 [7] was > 100 µM (inactive), the GI50 [8] was > 100 µM (inactive) and the GI50 [9] was > 100 µM (inactive). The GI50 [10] was > 100 µM (inactive), the GI50 [11] was > 100 µM (inactive) and the GI50 [12] was > 100 µM (inactive). The GI50 [13] was > 100 µM (inactive), the GI50 [14] was > 100 µM (inactive) and the GI50 [15] was > 100 µM (inactive). The GI50 [16] was > 100 µM (inactive), the GI50 [17] was > 100 µM (inactive) and the GI50 [18] was > 100 µM (inactive). The GI50 [19] was > 100 µM (inactive), the GI50 [20] was > 100 µM (inactive) and the GI50 [21] was > 100 µM (inactive). The GI50 [22] was > 100 µM (inactive), the GI50 [23] was > 100 µM (inactive) and the GI50 [24] was > 100 µM (inactive). The GI50 [25] was > 100 µM (inactive), the GI50 [26] was > 100 µM and the GI50 [27] was > 100 µM (inactive). The GI50 [28] was > 100 µM (inactive), the GI50 [29] was > 100 µM (inactive) and the GI50 [30] was > 100 µM (inactive). For the same compound, the GI50 [31] was > 100 µM (inactive), the GI50 [32] was > 100 µM (inactive) and the GI50 [33] was > 100 µM (inactive). For the same compound, the GI50 [34] was > 100 µM (inactive), the GI50 [35] was > 100 µM (inactive) and the GI50 [36] was > 100 µM (inactive). The GI50 [37] was > 100 µM (inactive), the GI50 [38] was > 100 µM (inactive) and the GI50 [39] was > 100 µM (inactive). For the same compound, the GI50 [40] was > 100 µM (inactive), the GI50 [41] was > 100 µM (inactive) and the GI50 [42] was > 100 µM (inactive). The GI50 [43] was > 100 µM (inactive), the GI50 [44] was > 100 µM (inactive) and the GI50 [45] was > 100 µM (inactive). For the same compound, the GI50 [46] was > 100 µM (inactive), the GI50 [47] was > 100 µM (inactive) and the GI50 [48] was > 100 µM (inactive). For the same compound, the GI50 [49] was > 100 µM (inactive), the GI50 [50] was > 100 µM (inactive) and the GI50 [51] was > 100 µM (inactive). For the same compound, the GI50 [52] was > 100 µM (inactive), the GI50 [53] was > 100 µM (inactive) and the GI50 [54] was > 100 µM (inactive).
In the case of `C/C(=C\c1ccccc1)C(=O)NCc1ccc(C(=O)NCCC(C)C)cc1`, the GI50 [1] is reported as > 100 µM (inactive), the GI50 [2] is reported as > 100 µM (inactive) and the GI50 [3] is reported as 37.8 µM (inactive). The GI50 [4] was 25.2 µM (inactive), the GI50 [55] was > 100 µM (inactive) and the GI50 [5] was 32.9 µM (inactive). For the same compound, the GI50 [6] was 33.8 µM (inactive), the GI50 [7] was 36.1 µM (inactive) and the GI50 [56] was 21.9 µM (inactive). For the same compound, the GI50 [8] was 37 µM (inactive), the GI50 [9] was > 100 µM (inactive) and the GI50 [10] was 68.7 µM (inactive). The GI50 [11] was > 100 µM (inactive), the GI50 [12] was > 100 µM (inactive) and the GI50 [13] was > 100 µM (inactive). For the same compound, the GI50 [15] was 41.8 µM (inactive), the GI50 [16] was > 100 µM (inactive) and the GI50 [17] was > 100 µM (inactive). For the same compound, the GI50 [18] was 55.6 µM (inactive), the GI50 [19] was 27 µM (inactive) and the GI50 [20] was > 100 µM (inactive). The GI50 [21] was > 100 µM (inactive), the GI50 [22] was 86.7 µM (inactive) and the GI50 [23] was 40.5 µM (inactive). For the same compound, the GI50 [24] was > 100 µM (inactive), the GI50 [25] was 38.3 µM (inactive) and the GI50 [26] was > 100 µM. The GI50 [27] was > 100 µM (inactive), the GI50 [28] was 18.2 µM (inactive) and the GI50 [29] was 85.3 µM (inactive). For the same compound, the GI50 [57] was 20.8 µM (inactive), the GI50 [30] was > 100 µM (inactive) and the GI50 [31] was 52.7 µM (inactive). For the same compound, the GI50 [32] was > 100 µM (inactive), the GI50 [33] was > 100 µM (inactive) and the GI50 [34] was 88.3 µM (inactive). For the same compound, the GI50 [35] was > 100 µM (inactive), the GI50 [36] was 15.6 µM (inactive) and the GI50 [37] was > 100 µM (inactive). The GI50 [38] was > 100 µM (inactive), the GI50 [39] was > 100 µM (inactive) and the GI50 [40] was > 100 µM (inactive). For the same compound, the GI50 [41] was 65 µM (inactive), the GI50 [42] was 76.4 µM (inactive) and the GI50 [43] was 93.8 µM (inactive). The GI50 [44] was 42.6 µM (inactive), the GI50 [45] was > 100 µM (inactive) and the GI50 [46] was > 100 µM (inactive). For the same compound, the GI50 [47] was > 100 µM (inactive), the GI50 [48] was > 100 µM (inactive) and the GI50 [49] was > 100 µM (inactive). For the same compound, the GI50 [58] was > 100 µM (inactive), the GI50 [50] was > 100 µM (inactive) and the GI50 [51] was 37.2 µM (inactive). For the same compound, the GI50 [52] was 49.5 µM (inactive) and the GI50 [54] was 45.5 µM (inactive).
`O=C1CS[C@@](CC(c2ccc(Cl)cc2)c2ccc(Cl)cc2)(c2ccc(Cl)cc2)N1` was tested, and the GI50 [1] was 11.8 µM (inactive), the GI50 [2] was > 100 µM (inactive) and the GI50 [3] was 25.1 µM (inactive). The GI50 [4] was 45 µM (inactive), the GI50 [55] was 4.71 µM (inactive) and the GI50 [5] was 22.8 µM (inactive). The GI50 [6] was 49.8 µM (inactive), the GI50 [7] was 33.2 µM (inactive) and the GI50 [56] was 33.5 µM (inactive). For the same compound, the GI50 [8] was 5.08 µM (inactive), the GI50 [9] was 8.13 µM (inactive) and the GI50 [10] was 26.4 µM (inactive). The GI50 [11] was 5.97 µM (inactive), the GI50 [12] was 6.28 µM (inactive) and the GI50 [13] was 12.6 µM (inactive). The GI50 [14] was 4.24 µM (inactive), the GI50 [15] was 9.55 µM (inactive) and the GI50 [16] was 13.4 µM (inactive). For the same compound, the GI50 [17] was 21.6 µM (inactive), the GI50 [59] was 38.2 µM (inactive) and the GI50 [18] was 11.2 µM (inactive). The GI50 [19] was 11.6 µM (inactive), the GI50 [20] was 4.18 µM (inactive) and the GI50 [21] was 4.74 µM (inactive). For the same compound, the GI50 [22] was 10.2 µM (inactive), the GI50 [23] was 9.75 µM (inactive) and the GI50 [24] was 14 µM (inactive). For the same compound, the GI50 [25] was 9.66 µM (inactive), the GI50 [26] was 10.8 µM and the GI50 [27] was 18.2 µM (inactive). For the same compound, the GI50 [28] was 14.2 µM (inactive), the GI50 [57] was 3.56 µM (inactive) and the GI50 [30] was 8.53 µM (inactive). The GI50 [31] was 2.16 µM (inactive), the GI50 [32] was 19.3 µM (inactive) and the GI50 [33] was 14.3 µM (inactive). For the same compound, the GI50 [34] was 9.75 µM (inactive), the GI50 [35] was 9.1 µM (inactive) and the GI50 [36] was 12.5 µM (inactive). For the same compound, the GI50 [37] was 51.3 µM (inactive), the GI50 [38] was 6.21 µM (inactive) and the GI50 [39] was 5.15 µM (inactive). For the same compound, the GI50 [40] was 43 µM (inactive), the GI50 [41] was 9.59 µM (inactive) and the GI50 [42] was 16.9 µM (inactive). For the same compound, the GI50 [43] was 19.2 µM (inactive), the GI50 [44] was 17.5 µM (inactive) and the GI50 [45] was 3.32 µM (inactive). The GI50 [46] was 39.1 µM (inactive), the GI50 [47] was 4.28 µM (inactive) and the GI50 [48] was 6.82 µM (inactive). For the same compound, the GI50 [49] was 4.68 µM (inactive), the GI50 [58] was 19.5 µM (inactive) and the GI50 [50] was 5.05 µM (inactive). For the same compound, the GI50 [51] was 14.6 µM (inactive), the GI50 [52] was 15.3 µM (inactive) and the GI50 [53] was 3.8 µM (inactive). The GI50 [54] was 8.17 µM (inactive).
